Activity calls are given as the source filed them. The calls are words filed in the database; no cut-off is given here.
Key:
Homo sapiens [1] = species on record: Homo sapiens; assay: Inhibition of cell migration in gefitinib-insensitive human HCC827GR cells incubated upto 72 hrs by wound healing assay; type: functional
[2] = molecular target: T1, Epidermal growth factor receptor (Homo sapiens, UniProt P00533); assay: Inhibition of N-terminal GST-tagged human EGFR (d746-750AA) expressed in baculovirus at 10 uM using FAM-labelled peptide as substrate pre-incubated for 10 mins followed by substrate addition by mobility shift assay relative to control
[3] = molecular target: T1, Epidermal growth factor receptor; assay: Inhibition of N-terminal GST-tagged human EGFR (d746-750AA) expressed in baculovirus using FAM-labelled peptide as substrate pre-incubated for 10 mins followed by substrate addition by mobility shift assay
[4] = molecular target: T2, Fibroblast growth factor receptor 1 (Homo sapiens, UniProt P11362); assay: Inhibition of N-terminal GST-tagged human FGFR1 cytoplasmic domain (398-822 AA) expressed in baculovirus using FAM-labelled peptide as substrate pre-incubated for 10 mins followed by substrate addition by mobility shift assay
HCC827 = assay: Antiproliferative activity against human HCC827 cells assessed as inhibition of cell growth at 10 uM incubated for 48 hrs by MTT assay relative to control; type: functional; details: HCC827, 48 h
PC-9 = assay: Antiproliferative activity against human PC9 cells assessed as inhibition of cell growth at 10 uM incubated for 48 hrs by MTT assay relative to control; type: functional; details: PC-9, 48 h
NCI-H520 = assay: Antiproliferative activity against human NCI-H520 cells assessed as inhibition of cell growth at 10 uM incubated for 48 hrs by MTT assay relative to control; type: functional; details: NCI-H520, 48 h
NCI-H226 [5] = assay: Antiproliferative activity against human NCI-H226 cells assessed as inhibition of cell growth at 10 uM incubated for 48 hrs by MTT assay relative to control; type: functional; details: NCI-H226, 48 h
Homo sapiens [6] = species on record: Homo sapiens; assay: Induction of cell cycle arrest in gefitinib-insensitive human HCC827GR cells assessed as accumulation of cells at G1 measured after 24 hrs by flow cytometry; type: functional
[7] = Tmax in Sprague-Dawley rat at 30 mg/kg, po measured upto 24 hrs by UPLC-MS/MS; type: ADME, organism-based; details: in vivo
[8] = molecular target: T1, Epidermal growth factor receptor; assay: Inhibition of EGF-induced EGFR phosphorylation in serum-starved human PC9 cells upto 10 uM incubated for 1 hr by Western blot analysis
[9] = Antiproliferative activity against gefitinib-resistant human HCC827GR cells incubated for 48 hrs by MTT assay; type: functional
Homo sapiens [10] = species on record: Homo sapiens; assay: Inhibition of colony formation in gefitinib-insensitive human HCC827GR cells measured after 24 hrs by crystal violet staining based assay; type: functional
NCI-H226 [11] = assay: Induction of apoptosis in human NCI-H226 cells assessed as necrotic cells at 1 uM measured after 24 hrs by Annexin-V/propidium iodide staining-based flow cytometric analysis (reference value: 3%); type: functional
NCI-H226 [12] = assay: Induction of apoptosis in human NCI-H226 cells assessed as early apoptotic cells at 5 uM measured after 24 hrs by Annexin-V/propidium iodide staining-based flow cytometric analysis (reference value: 0.8%); type: functional
NCI-H226 [13] = assay: Induction of apoptosis in human NCI-H226 cells assessed as late apoptotic cells at 5 uM measured after 24 hrs by Annexin-V/propidium iodide staining-based flow cytometric analysis (reference value: 2.8%); type: functional
NCI-H226 [14] = assay: Induction of apoptosis in human NCI-H226 cells assessed as early apoptotic cells at 10 uM measured after 24 hrs by Annexin-V/propidium iodide staining-based flow cytometric analysis (reference value: 0.8%); type: functional
[15] = Induction of apoptosis in gefitinib-insensitive human HCC827GR cells assessed as viable cells at 1 uM measured after 24 hrs by Annexin-V/propidium iodide staining-based flow cytometric analysis (reference value: 90.8%); type: functional; details: read-out: Activity
[16] = Induction of apoptosis in gefitinib-insensitive human HCC827GR cells assessed as necrotic cells at 1 uM measured after 24 hrs by Annexin-V/propidium iodide staining-based flow cytometric analysis (reference value: 5.8%); type: functional
[17] = Induction of apoptosis in gefitinib-insensitive human HCC827GR cells assessed as early apoptotic cells at 2.5 uM measured after 24 hrs by Annexin-V/propidium iodide staining-based flow cytometric analysis (reference value: 1.9%); type: functional
[18] = Toxicity in BALB/c nude mouse xenografted with human HCC827GR cells assessed as body weight at 15 mg/kg, ip dosed measured every 2 days upto 24 days; type: organism-based; details: in vivo
[19] = molecular target: T2, Fibroblast growth factor receptor 1; assay: Inhibition of FGFR1 in gefitinib-insensitive human HCC827GR cells assessed as reduction in FGF-induced Akt phosphorylation upto 10 uM measured after 2 hrs by western blot analysis
Target sequence in this assay (P11362 22-822 limits assumed): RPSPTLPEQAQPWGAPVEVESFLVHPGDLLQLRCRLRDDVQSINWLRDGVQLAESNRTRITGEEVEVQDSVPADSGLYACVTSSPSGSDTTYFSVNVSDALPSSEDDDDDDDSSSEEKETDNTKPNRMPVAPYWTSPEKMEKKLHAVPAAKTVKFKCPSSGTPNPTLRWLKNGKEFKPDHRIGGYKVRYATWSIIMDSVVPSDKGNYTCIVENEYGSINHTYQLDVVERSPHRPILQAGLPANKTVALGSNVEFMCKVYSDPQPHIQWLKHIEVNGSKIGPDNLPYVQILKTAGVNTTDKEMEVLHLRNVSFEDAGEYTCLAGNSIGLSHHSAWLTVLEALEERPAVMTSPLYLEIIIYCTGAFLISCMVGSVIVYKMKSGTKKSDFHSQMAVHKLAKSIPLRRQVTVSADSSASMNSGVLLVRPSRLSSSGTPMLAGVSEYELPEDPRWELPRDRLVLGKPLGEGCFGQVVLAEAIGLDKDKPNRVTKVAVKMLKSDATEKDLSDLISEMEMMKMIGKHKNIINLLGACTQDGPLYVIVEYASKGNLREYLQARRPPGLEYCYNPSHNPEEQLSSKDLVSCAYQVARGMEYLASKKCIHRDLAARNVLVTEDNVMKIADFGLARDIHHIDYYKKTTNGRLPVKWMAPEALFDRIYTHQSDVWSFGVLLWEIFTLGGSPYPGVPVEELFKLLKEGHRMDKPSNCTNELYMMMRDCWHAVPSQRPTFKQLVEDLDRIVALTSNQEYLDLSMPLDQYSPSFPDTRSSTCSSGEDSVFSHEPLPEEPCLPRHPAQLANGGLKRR

[20] = MRT in Sprague-Dawley rat at 30 mg/kg, po measured upto 24 hrs by UPLC-MS/MS; type: ADME, organism-based; details: in vivo
[21] = molecular target: Fibroblast growth factor receptor 3 (Homo sapiens) (UniProt P22607); assay: Inhibition of N-terminal GST tagged human FGFR3 cytoplasmic domain (436 to 806 AA) expressed in baculovirus at 10 uM using FAM-labelled peptide as substrate pre-incubated for 10 mins followed by substrate addition by mobility shift assay relative to control
[22] = molecular target: Platelet-derived growth factor receptor beta (Homo sapiens) (UniProt P09619); assay: Inhibition of N-terminal GST tagged human PDGFRbeta cytoplasmic domain (557 to 1106 AA) expressed in baculovirus at 10 uM using FAM-labelled peptide as substrate pre-incubated for 10 mins followed by substrate addition by mobility shift assay relative to control
[23] = molecular target: Cyclin-dependent kinase 1/cyclin B1 (Homo sapiens) (UniProt P06493+P14635); assay: Inhibition of CDC2/cyclinB1 (unknown origin) at 10 uM using FAM-labelled peptide as substrate pre-incubated for 10 mins followed by substrate addition by mobility shift assay relative to control; type: protein-complex assay
[24] = molecular target: Wee1-like protein kinase (Homo sapiens) (UniProt P30291); assay: Inhibition of N-terminal GST tagged human WEE1 catalytic domain (215 to 646 AA) expressed in baculovirus at 10 uM using FAM-labelled peptide as substrate pre-incubated for 10 mins followed by substrate addition by mobility shift assay relative to control
[25] = molecular target: Mitogen-activated protein kinase 8 (Homo sapiens) (UniProt P45983); assay: Inhibition of human full length His-tagged JNK1 expressed in baculovirus expression system at 10 uM using FAM-labelled peptide as substrate pre-incubated for 10 mins followed by substrate addition by mobility shift assay relative to control
[26] = molecular target: Mitogen-activated protein kinase 9 (Homo sapiens) (UniProt P45984); assay: Inhibition of human recombinant full length His-tagged JNK2 expressed in baculovirus expression system at 10 uM using FAM-labelled peptide as substrate pre-incubated for 10 mins followed by substrate addition by mobility shift assay relative to control
[27] = molecular target: Cyclin-dependent kinase 5/CDK5 activator 1 (Homo sapiens) (UniProt Q00535+Q15078); assay: Inhibition of CDK5/p35 (unknown origin) at 10 uM using FAM-labelled peptide as substrate pre-incubated for 10 mins followed by substrate addition by mobility shift assay relative to control; type: protein-complex assay

T1 sequence (P00533 whole entry): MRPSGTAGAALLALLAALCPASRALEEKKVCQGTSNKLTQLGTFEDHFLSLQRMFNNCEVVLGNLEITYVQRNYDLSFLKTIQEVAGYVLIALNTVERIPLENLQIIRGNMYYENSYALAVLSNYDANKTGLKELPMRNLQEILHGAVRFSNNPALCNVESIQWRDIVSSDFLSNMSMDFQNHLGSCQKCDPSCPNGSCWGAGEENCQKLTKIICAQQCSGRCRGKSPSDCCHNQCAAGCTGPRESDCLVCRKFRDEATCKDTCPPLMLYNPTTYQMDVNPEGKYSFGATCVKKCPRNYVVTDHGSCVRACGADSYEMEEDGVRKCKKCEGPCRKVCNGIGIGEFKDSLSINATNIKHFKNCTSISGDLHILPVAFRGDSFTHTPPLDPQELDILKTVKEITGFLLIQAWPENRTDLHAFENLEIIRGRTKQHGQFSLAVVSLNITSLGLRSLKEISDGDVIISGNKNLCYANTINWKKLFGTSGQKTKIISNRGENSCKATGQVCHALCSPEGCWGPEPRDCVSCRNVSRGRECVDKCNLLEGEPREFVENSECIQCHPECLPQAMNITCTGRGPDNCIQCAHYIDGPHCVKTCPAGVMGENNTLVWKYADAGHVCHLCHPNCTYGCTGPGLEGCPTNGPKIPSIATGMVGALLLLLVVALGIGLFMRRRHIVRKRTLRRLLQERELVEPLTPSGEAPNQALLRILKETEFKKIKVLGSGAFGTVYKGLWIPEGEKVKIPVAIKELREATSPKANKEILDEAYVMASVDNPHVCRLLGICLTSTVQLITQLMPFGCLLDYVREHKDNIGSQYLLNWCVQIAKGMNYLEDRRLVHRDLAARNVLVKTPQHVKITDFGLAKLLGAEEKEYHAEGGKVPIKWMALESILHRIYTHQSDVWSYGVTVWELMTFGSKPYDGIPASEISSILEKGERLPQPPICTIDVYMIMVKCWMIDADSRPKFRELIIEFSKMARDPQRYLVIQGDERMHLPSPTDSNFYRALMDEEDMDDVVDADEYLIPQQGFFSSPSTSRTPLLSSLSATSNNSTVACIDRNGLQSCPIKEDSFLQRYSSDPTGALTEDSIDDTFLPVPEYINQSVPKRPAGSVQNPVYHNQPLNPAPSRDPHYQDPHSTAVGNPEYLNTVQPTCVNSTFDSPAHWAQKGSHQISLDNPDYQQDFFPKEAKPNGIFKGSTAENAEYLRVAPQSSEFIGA
Platelet-derived growth factor receptor beta (Homo sapiens), sequence (P09619 whole entry, the tested form may be a part): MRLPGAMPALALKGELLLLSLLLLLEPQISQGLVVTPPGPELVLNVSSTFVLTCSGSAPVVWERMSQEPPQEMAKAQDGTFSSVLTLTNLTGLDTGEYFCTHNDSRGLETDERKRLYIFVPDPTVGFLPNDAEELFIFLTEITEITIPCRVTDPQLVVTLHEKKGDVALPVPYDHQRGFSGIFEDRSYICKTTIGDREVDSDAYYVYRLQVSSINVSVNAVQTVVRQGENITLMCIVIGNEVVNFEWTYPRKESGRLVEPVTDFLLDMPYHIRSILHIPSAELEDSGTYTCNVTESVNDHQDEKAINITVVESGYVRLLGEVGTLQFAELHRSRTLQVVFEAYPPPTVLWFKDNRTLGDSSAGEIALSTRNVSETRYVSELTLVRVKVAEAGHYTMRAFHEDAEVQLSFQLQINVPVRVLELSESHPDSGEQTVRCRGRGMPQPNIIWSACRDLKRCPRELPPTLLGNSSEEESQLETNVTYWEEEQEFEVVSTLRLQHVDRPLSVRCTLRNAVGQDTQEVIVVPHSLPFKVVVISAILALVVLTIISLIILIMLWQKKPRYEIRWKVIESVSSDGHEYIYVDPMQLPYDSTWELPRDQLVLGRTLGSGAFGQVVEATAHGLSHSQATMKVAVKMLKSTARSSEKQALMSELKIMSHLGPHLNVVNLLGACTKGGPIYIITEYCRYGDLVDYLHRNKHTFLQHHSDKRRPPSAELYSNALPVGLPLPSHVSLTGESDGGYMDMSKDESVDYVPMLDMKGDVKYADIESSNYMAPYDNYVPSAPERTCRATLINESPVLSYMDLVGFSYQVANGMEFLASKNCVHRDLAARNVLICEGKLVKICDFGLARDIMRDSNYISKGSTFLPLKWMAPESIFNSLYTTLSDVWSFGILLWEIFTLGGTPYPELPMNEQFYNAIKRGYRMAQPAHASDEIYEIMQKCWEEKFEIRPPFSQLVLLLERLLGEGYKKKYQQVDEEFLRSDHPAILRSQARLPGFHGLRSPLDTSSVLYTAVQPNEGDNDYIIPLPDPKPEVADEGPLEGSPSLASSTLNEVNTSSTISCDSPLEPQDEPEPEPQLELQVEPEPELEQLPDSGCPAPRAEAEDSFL
Cyclin-dependent kinase 1/cyclin B1 (Homo sapiens), sequence (P06493 whole entry, looked up, the tested form may be a part): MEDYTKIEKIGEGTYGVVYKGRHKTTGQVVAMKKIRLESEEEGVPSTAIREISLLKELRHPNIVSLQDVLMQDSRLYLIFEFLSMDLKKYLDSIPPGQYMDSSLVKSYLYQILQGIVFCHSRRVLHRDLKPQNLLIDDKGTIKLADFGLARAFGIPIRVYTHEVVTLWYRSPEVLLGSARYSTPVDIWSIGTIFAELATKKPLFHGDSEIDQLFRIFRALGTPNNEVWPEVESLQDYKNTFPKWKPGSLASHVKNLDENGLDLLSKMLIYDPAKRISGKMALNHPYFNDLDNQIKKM
Cyclin-dependent kinase 1/cyclin B1 (Homo sapiens), sequence (P14635 whole entry, looked up, the tested form may be a part): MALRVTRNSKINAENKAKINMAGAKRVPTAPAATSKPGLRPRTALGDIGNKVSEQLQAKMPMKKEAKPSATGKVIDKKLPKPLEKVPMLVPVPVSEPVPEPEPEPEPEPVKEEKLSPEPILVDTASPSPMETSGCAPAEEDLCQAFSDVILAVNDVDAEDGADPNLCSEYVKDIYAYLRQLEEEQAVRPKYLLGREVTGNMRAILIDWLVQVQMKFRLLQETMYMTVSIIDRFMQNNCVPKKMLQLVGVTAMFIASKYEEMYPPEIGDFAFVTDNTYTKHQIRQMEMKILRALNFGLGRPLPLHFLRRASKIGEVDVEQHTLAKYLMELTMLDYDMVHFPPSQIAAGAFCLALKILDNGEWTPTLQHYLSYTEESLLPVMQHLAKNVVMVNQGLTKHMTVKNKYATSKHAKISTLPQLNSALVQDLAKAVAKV
Wee1-like protein kinase (Homo sapiens), sequence (P30291 whole entry, looked up, the tested form may be a part): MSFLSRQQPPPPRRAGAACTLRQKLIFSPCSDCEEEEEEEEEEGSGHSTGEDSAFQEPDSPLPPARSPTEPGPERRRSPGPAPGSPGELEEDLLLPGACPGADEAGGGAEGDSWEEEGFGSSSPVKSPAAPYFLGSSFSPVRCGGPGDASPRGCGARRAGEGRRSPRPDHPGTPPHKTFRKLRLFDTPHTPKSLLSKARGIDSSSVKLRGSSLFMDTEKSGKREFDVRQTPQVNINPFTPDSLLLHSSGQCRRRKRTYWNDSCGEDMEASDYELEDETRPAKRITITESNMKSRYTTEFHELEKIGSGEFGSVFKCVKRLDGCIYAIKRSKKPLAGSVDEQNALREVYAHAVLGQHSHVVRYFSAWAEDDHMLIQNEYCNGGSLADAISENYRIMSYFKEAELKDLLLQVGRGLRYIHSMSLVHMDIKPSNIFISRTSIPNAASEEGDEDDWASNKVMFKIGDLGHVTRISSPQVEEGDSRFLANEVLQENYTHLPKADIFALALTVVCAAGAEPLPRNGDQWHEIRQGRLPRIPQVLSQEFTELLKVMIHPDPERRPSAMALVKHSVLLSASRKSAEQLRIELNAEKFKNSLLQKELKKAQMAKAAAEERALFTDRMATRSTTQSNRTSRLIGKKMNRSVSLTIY
Mitogen-activated protein kinase 8 (Homo sapiens), sequence (P45983 whole entry): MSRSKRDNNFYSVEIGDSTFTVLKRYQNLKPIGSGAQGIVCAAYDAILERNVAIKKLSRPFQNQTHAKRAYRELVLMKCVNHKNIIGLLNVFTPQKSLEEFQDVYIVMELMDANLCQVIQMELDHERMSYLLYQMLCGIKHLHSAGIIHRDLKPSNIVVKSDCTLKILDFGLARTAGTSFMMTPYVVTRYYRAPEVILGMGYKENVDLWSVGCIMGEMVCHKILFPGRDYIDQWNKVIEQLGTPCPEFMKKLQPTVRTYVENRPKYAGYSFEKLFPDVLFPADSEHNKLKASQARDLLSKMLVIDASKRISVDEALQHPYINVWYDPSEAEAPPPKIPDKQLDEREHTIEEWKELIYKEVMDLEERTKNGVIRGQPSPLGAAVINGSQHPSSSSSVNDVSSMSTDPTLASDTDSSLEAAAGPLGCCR

COc1ccc(OC)c(Nc2cc(NC(=O)Nc3c(Cl)cccc3Cl)ncn2)c1
inhibition (Homo sapiens [1]): Dose-dependent effect
inhibition [2]: 95.8%
IC50 [3]: 73 nM
IC50 [4]: 808 nM
inhibition at 10 µM (HCC827): 94%
inhibition at 10 µM (PC-9): 95%
inhibition at 10 µM (NCI-H520): 74%
inhibition at 10 µM (NCI-H226 [5]): 81.7%
Activity (Homo sapiens [6]): Active
Tmax [7]: 1.5 h
inhibition [8]: Active
IC50 [9]: 930 nM
inhibition (Homo sapiens [10]): Dose-dependent effect
Activity (NCI-H226 [11]): 5.8%
Activity (NCI-H226 [12]): 6.3%
Activity (NCI-H226 [13]): 8.9%
Activity (NCI-H226 [14]): 4.4%
viability at 1 µM [15]: 79.5%
Activity [16]: 3.6%
Activity [17]: 2.5%
Activity [18]: Non-Toxic
inhibition [19]: Active
MRT [20]: 6.73 h
inhibition [21]: 15.8%
inhibition [22]: 56.2%
inhibition [23]: -9.78%
inhibition [24]: 28%
inhibition [25]: 3.79%
inhibition [26]: 0.85%
inhibition [27]: -2.81%
